Source: the supplement of paper PMC8617591

Assays:
[1] = tested on: Mycobacterium tuberculosis Erdman (autoluminescent); assay: GRinf, maximum normalised growth rate inhibition (three-drug combination) (unitless (-1 to 1)); higher = less effect (negative = killing)
Experimental: (§1)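 DiaMOND equipotent three-drug combination dose responses (10 doses, 1.5- or 2-fold spacing, centred on IC90) against autoluminescent M. tuberculosis Erdman in 8 in vitro models. Read-out is OD600, or luminescence for the intracellular and dormancy models, normalised to untreated wells. Hill-fit Einf, AUC25 and GRinf are potency metrics; FIC50 and FIC90 are total Loewe fractional inhibitory concentrations as log2 (negative = synergy).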

[2] = tested on: Mycobacterium tuberculosis Erdman (autoluminescent); assay: AUC25, normalised area under dose response up to IC25 (three-drug combination) (fraction (0-1)); higher = more potent at low dose
Experimental: as §1

[3] = tested on: Mycobacterium tuberculosis Erdman (autoluminescent); assay: total FIC90 (Loewe) at 90% inhibition, three-drug combination (log2); higher = more antagonistic
Experimental: as §1

[4] = tested on: Mycobacterium tuberculosis Erdman (autoluminescent); assay: total FIC50 (Loewe) at 50% inhibition, three-drug combination (log2); higher = more antagonistic
Experimental: as §1

[5] = tested on: Mycobacterium tuberculosis Erdman (autoluminescent); assay: Einf, fitted maximum growth inhibition of three-drug combination (fraction); higher = stronger maximal inhibition
Experimental: as §1

[6] = in vitro model: acidic pH 5.7, time point: constant (~7 days, model-specific)
[7] = in vitro model: acidic pH 5.7, time point: terminal (~4-5 doublings, model-specific)
[8] = in vitro model: butyrate, time point: constant (~7 days, model-specific)
[9] = in vitro model: butyrate, time point: terminal (~4-5 doublings, model-specific)
[10] = in vitro model: cholesterol 0.05 mM, time point: constant (~7 days, model-specific)
[11] = in vitro model: cholesterol 0.05 mM, time point: terminal (~4-5 doublings, model-specific)
[12] = in vitro model: cholesterol-high 0.2 mM, time point: constant (~7 days, model-specific)
[13] = in vitro model: cholesterol-high 0.2 mM, time point: terminal (~4-5 doublings, model-specific)
[14] = in vitro model: dormancy (butyrate + nitrate, low O2), time point: constant (~7 days, model-specific)
[15] = in vitro model: dormancy (butyrate + nitrate, low O2), time point: terminal (~4-5 doublings, model-specific)
[16] = in vitro model: intracellular J774, time point: constant = terminal
[17] = in vitro model: standard 7H9 glycerol, time point: constant = terminal
[18] = in vitro model: valerate, time point: constant (~7 days, model-specific)
[19] = in vitro model: valerate, time point: terminal (~4-5 doublings, model-specific)

CC[C@@H](CO)NCCN[C@@H](CC)CO [ethambutol] + CC(=O)NC[C@H]1CN(c2ccc(N3CCOCC3)c(F)c2)C(=O)O1 [linezolid] + CO[C@H]1/C=C/O[C@@]2(C)Oc3c(C)c(O)c4c(O)c(c(/C=N/N5CCN(C)CC5)c(O)c4c3C2=O)NC(=O)/C(C)=C\C=C\[C@H](C)[C@H](O)[C@@H](C)[C@@H](O)[C@@H](C)[C@H](OC(C)=O)[C@@H]1C [rifampicin]
GRinf [1, 6]: -0.171 | GRinf [1, 7]: -0.121 | GRinf [1, 8]: 0.0409 | GRinf [1, 9]: 0.0366 | GRinf [1, 10]: -0.271 | GRinf [1, 11]: -0.414 | GRinf [1, 12]: -0.549 | GRinf [1, 13]: -0.743 | GRinf [1, 14]: 0.521 | GRinf [1, 15]: -0.0529 | GRinf [1, 16]: -0.326 | GRinf [1, 17]: 0.107 | GRinf [1, 18]: 0.0331 | GRinf [1, 19]: 0.0654 | AUC25 [2, 6]: 0.107 | AUC25 [2, 7]: 0.0468 | AUC25 [2, 8]: 0.0696 | AUC25 [2, 9]: 0.0538 | AUC25 [2, 10]: 0.163 | AUC25 [2, 11]: 0.142 | AUC25 [2, 12]: 0.0878 | AUC25 [2, 13]: 0.0943 | AUC25 [2, 14]: 0.086 | AUC25 [2, 15]: 0.0341 | AUC25 [2, 17]: 0.0613 | AUC25 [2, 18]: 0.0592 | AUC25 [2, 19]: 0.0352 | total FIC90 [3, 7]: 0.219 | total FIC90 [3, 9]: -0.801 | total FIC90 [3, 13]: 0.577 | total FIC90 [3, 15]: -0.712 | total FIC90 [3, 16]: -2.16 | total FIC90 [3, 19]: -0.279 | total FIC50 [4, 6]: 0.267 | total FIC50 [4, 7]: 0.894 | total FIC50 [4, 8]: 0.215 | total FIC50 [4, 9]: 0.088 | total FIC50 [4, 10]: -0.838 | total FIC50 [4, 11]: -1.2 | total FIC50 [4, 12]: 0.326 | total FIC50 [4, 13]: 0.388 | total FIC50 [4, 14]: 0.204 | total FIC50 [4, 15]: 0.514 | total FIC50 [4, 17]: 0.293 | total FIC50 [4, 18]: 0.437 | total FIC50 [4, 19]: 0.622 | Einf [5, 6]: 0.895 | Einf [5, 7]: 0.972 | Einf [5, 8]: 0.907 | Einf [5, 9]: 0.952 | Einf [5, 10]: 0.704 | Einf [5, 11]: 0.945 | Einf [5, 12]: 0.971 | Einf [5, 13]: 1 | Einf [5, 14]: 0.805 | Einf [5, 15]: 0.979 | Einf [5, 16]: 0.96 | Einf [5, 17]: 0.9 | Einf [5, 18]: 0.858 | Einf [5, 19]: 0.921

CC[C@@H](CO)NCCN[C@@H](CC)CO [ethambutol] + CC(=O)NC[C@H]1CN(c2ccc(N3CCOCC3)c(F)c2)C(=O)O1 [linezolid] + COc1c(N2C[C@@H]3CCCN[C@@H]3C2)c(F)cc2c(=O)c(C(=O)O)cn(C3CC3)c12 [moxifloxacin]
GRinf [1, 6]: -0.587 | GRinf [1, 7]: -0.36 | GRinf [1, 8]: 0.105 | GRinf [1, 9]: 0.104 | GRinf [1, 10]: -0.165 | GRinf [1, 11]: -0.548 | GRinf [1, 12]: -0.318 | GRinf [1, 13]: -0.97 | GRinf [1, 14]: 0.414 | GRinf [1, 15]: -0.0859 | GRinf [1, 16]: -0.388 | GRinf [1, 17]: -0.3 | GRinf [1, 18]: 0.0258 | GRinf [1, 19]: -0.0184 | AUC25 [2, 6]: 0.121 | AUC25 [2, 7]: 0.101 | AUC25 [2, 8]: 0.0929 | AUC25 [2, 9]: 0.0678 | AUC25 [2, 10]: 0.149 | AUC25 [2, 11]: 0.162 | AUC25 [2, 12]: 0.111 | AUC25 [2, 13]: 0.109 | AUC25 [2, 14]: 0.0953 | AUC25 [2, 15]: 0.0816 | AUC25 [2, 17]: 0.0554 | AUC25 [2, 18]: 0.0828 | AUC25 [2, 19]: 0.0583 | total FIC90 [3, 7]: 0.487 | total FIC90 [3, 9]: 0.397 | total FIC90 [3, 13]: 1 | total FIC90 [3, 15]: 0.576 | total FIC90 [3, 16]: -0.395 | total FIC90 [3, 17]: 0.685 | total FIC90 [3, 19]: 0.845 | total FIC50 [4, 6]: 0.0272 | total FIC50 [4, 7]: 1.25 | total FIC50 [4, 8]: 0.436 | total FIC50 [4, 9]: 0.501 | total FIC50 [4, 10]: -0.0271 | total FIC50 [4, 11]: 7.63 | total FIC50 [4, 12]: 0.596 | total FIC50 [4, 13]: 0.421 | total FIC50 [4, 14]: 0.25 | total FIC50 [4, 15]: -0.563 | total FIC50 [4, 17]: 0.808 | total FIC50 [4, 18]: 0.39 | total FIC50 [4, 19]: 0.654 | Einf [5, 6]: 0.782 | Einf [5, 7]: 0.956 | Einf [5, 8]: 0.887 | Einf [5, 9]: 0.938 | Einf [5, 10]: 0.725 | Einf [5, 11]: 0.932 | Einf [5, 12]: 0.942 | Einf [5, 13]: 1 | Einf [5, 14]: 0.849 | Einf [5, 15]: 0.967 | Einf [5, 16]: 0.966 | Einf [5, 17]: 0.958 | Einf [5, 18]: 0.872 | Einf [5, 19]: 0.938

CC[C@@H](CO)NCCN[C@@H](CC)CO [ethambutol] + CC(=O)NC[C@H]1CN(c2ccc(N3CCOCC3)c(F)c2)C(=O)O1 [linezolid] + NC(=O)c1cnccn1 [pyrazinamide]
GRinf [1, 6]: -0.314 | GRinf [1, 7]: -0.245 | GRinf [1, 8]: 0.0745 | GRinf [1, 9]: 0.0716 | GRinf [1, 10]: -0.0274 | GRinf [1, 11]: -0.696 | GRinf [1, 12]: -0.667 | GRinf [1, 13]: -0.959 | GRinf [1, 14]: 0.388 | GRinf [1, 15]: 0.0543 | GRinf [1, 16]: -0.526 | GRinf [1, 17]: 0.221 | GRinf [1, 18]: 0.000637 | GRinf [1, 19]: 0.102 | AUC25 [2, 6]: 0.087 | AUC25 [2, 7]: 0.0645 | AUC25 [2, 8]: 0.114 | AUC25 [2, 9]: 0.0865 | AUC25 [2, 10]: 0.16 | AUC25 [2, 11]: 0.168 | AUC25 [2, 12]: 0.101 | AUC25 [2, 13]: 0.11 | AUC25 [2, 14]: 0.107 | AUC25 [2, 15]: 0.102 | AUC25 [2, 17]: 0.071 | AUC25 [2, 18]: 0.0934 | AUC25 [2, 19]: 0.0462 | total FIC90 [3, 7]: -1.27 | total FIC90 [3, 9]: 0.638 | total FIC90 [3, 13]: 0.985 | total FIC90 [3, 15]: 0.627 | total FIC90 [3, 16]: 0.433 | total FIC50 [4, 6]: 0.0711 | total FIC50 [4, 7]: 1.01 | total FIC50 [4, 8]: 0.217 | total FIC50 [4, 9]: 0.189 | total FIC50 [4, 11]: -1.33 | total FIC50 [4, 12]: 0.563 | total FIC50 [4, 13]: 0.303 | total FIC50 [4, 14]: 0.819 | total FIC50 [4, 15]: 0.154 | total FIC50 [4, 17]: 1.2 | total FIC50 [4, 18]: 0.255 | total FIC50 [4, 19]: 0.697 | Einf [5, 6]: 0.835 | Einf [5, 7]: 0.963 | Einf [5, 8]: 0.891 | Einf [5, 9]: 0.932 | Einf [5, 10]: 0.785 | Einf [5, 11]: 0.977 | Einf [5, 12]: 0.944 | Einf [5, 13]: 1 | Einf [5, 14]: 0.75 | Einf [5, 15]: 0.964 | Einf [5, 16]: 0.966 | Einf [5, 17]: 0.86 | Einf [5, 18]: 0.864 | Einf [5, 19]: 0.909
